Laboratory results published in patent US6921763B2, “Pyrazolopyrimidines as therapeutic agents” (Abbott Laboratories, priority 1999, dated 2005).

Row | melting point [°C] | Compound
1 | 173 to 175 | Nc1ncnc2c1c(-c1ccc(Oc3ccccc3)cc1)nn2[C@H]1CC[C@@H](N2CCNCC2)CC1.O=C(O)/C=C\C(=O)O.O=C(O)/C=C\C(=O)O.O=C(O)/C=C\C(=O)O
2 | 153 to 155 | Nc1ncnc2c1c(-c1ccc(Oc3ccccc3)cc1)nn2[C@H]1CC[C@H](N2CCNCC2)CC1.O=C(O)/C=C\C(=O)O.O=C(O)/C=C\C(=O)O.O=C(O)/C=C\C(=O)O
3 | 187 to 187.5 | Nc1ncnc2c1c(-c1ccc(Oc3ccccc3)cc1)nn2C1CCOCC1
4 | 200 to 202.5 | Nc1ncnc2c1c(-c1ccc(Oc3ccccc3)cc1)nn2C1CCC2(CC1)OCCO2
